Measurements: US8106067B2, “Indolizine derivatives and the use thereof as antidiabetics” (Merck Patent GmbH, priority 2006, dated 2012)

How the values were obtained:
SGLT2 = molecular target: T1, SGLT2 (Homo sapiens, UniProt P31639); test: 14C-AMG uptake in BHK cells transfected with SGLT2 (96-well cell-based assay); settings: 2 mM AMG, 37° C., 90 min
T1 construct: expressed in transfected cells
T1 sequence (P31639 1-672): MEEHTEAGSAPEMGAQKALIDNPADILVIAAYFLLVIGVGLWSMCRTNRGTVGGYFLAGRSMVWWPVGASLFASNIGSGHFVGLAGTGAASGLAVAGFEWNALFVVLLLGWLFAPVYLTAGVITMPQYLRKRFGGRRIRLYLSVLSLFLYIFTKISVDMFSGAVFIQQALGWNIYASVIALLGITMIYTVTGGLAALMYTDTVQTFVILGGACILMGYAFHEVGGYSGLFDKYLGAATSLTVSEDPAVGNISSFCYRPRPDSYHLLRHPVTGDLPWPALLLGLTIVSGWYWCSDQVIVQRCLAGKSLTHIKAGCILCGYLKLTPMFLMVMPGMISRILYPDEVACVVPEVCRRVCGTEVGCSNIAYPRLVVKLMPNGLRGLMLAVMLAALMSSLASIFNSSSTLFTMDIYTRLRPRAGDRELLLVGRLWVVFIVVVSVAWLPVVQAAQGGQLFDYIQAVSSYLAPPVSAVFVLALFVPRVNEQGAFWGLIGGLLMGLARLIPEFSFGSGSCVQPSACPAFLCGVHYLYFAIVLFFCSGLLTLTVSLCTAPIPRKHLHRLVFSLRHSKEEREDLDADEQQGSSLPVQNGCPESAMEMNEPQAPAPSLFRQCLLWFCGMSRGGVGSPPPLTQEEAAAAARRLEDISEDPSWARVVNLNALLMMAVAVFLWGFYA
Text: (§1) The compounds can be tested for their SGLT inhibition properties by means of BHK cells expressing SGLT1 and SGLT2. The production of the cells and the testing can be carried out as described below.
To construct the SGLT2 expression vector (KL224), the SLC5A2 gene (homologous to NM_003041) was amplified from a cDNA library using standard PCR technology and cloned over NheI/XhoI sites into PCI-neo expression vector (Promega) containing neomycin as a selection marker. In this vector, transcription uses the enhancer/promoter of human cytomegalovirus and the SV40 polyadenylation signal.
(§2) The final vector KL224 together with an additional vector containing a dihydrofolate reductase gene as a selection marker was introduced into cells. […] After growth for 2-3 weeks, the cells were cloned (0.5 cells/well) and the clones were investigated for SGLT expression in radioactivity uptake tests. […]
(§3) BHK cells (transfected with SGLT1 or SGLT2) were seeded into 96-well microtitre plates (Cultureplates, Perkin Elmer). […] The radioactivity was counted in a Topcount microplate scintillation counter (Perkin Elmer). The non-specific uptake was determined in sodium-free assay buffer (266 mM sucrose, 2 mM KCl, 1 mM CaCl2, 1 mM MgCl2, 10 mM HEPES, 5 mM Tris, adjusted to pH 7.4 using 1 M KOH).

SGLT1 = molecular target: T2, SGLT1 (Homo sapiens, UniProt P13866); test: 14C-AMG uptake in BHK cells transfected with SGLT1 (96-well cell-based assay); settings: 50 μM AMG, 37° C., 90 min
T2 construct: expressed in transfected cells
T2 sequence (P13866 1-664): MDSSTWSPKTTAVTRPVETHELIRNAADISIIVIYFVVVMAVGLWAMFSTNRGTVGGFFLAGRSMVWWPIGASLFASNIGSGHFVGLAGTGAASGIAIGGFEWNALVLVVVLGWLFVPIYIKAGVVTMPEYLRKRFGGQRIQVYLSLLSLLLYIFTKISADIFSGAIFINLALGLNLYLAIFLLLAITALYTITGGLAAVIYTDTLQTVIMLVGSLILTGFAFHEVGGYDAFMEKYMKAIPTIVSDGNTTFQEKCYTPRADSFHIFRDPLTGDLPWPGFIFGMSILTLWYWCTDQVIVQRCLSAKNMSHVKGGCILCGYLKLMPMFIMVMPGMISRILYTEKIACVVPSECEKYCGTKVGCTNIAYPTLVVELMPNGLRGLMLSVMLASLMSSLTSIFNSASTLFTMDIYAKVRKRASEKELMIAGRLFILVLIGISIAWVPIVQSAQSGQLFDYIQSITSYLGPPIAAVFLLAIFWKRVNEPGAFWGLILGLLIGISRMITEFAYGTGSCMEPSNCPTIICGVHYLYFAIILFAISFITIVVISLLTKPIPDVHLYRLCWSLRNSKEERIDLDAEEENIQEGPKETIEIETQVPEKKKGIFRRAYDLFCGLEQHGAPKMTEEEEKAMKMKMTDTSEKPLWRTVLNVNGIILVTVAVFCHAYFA
Text: as §1
To construct the SGLT1 expression vector (KL225), the SLC5A1 gene (homologous to NM-000343) was amplified from a cDNA library using standard PCR technology and cloned over NheI/XhoI sites into the pcDNA3.1 expression vector (Invitrogen) containing neomycin as a selection marker. In this vector, transcription uses the enhancer/promoter of human cytomegalovirus.
as §2, with “KL225” for “KL224”
as §3

| Structure (SMILES) | IC50 (SGLT2) [nM] | IC50 (SGLT1) [nM] |
| --- | --- | --- |
| Cc1cccc(C)c1Nc1c(-c2ccccc2OCC(N)=O)c(C#N)c2ccccn12 [Compound A2, 2-{2-[1-Cyano-3-(2,6-dimethylphenylamino)indolizin-2-yl]phenoxy}acetamide] | 10 to 1000 | 1000 to 10000 |
| COc1cccc(OCC(N)=O)c1-c1c(C#N)c2ccccn2c1Nc1c(C)cccc1C [Compound A1, 2-{2-[1-cyano-3-(2,6-dimethylphenylamino)indolizin-2-yl]-3-methoxyphenoxy}acetamide] | 10 to 1000 | 1000 to 10000 |
